Measured values from patent publication US20210002232A1, “HETEROCYCLIC COMPOUNDS AS FUNGICIDES” (PI INDUSTRIES LTD., priority 2018, published 2021).

Test system: Pyricularia oryzae
Test: microbe, parasite or virus in culture
Format: cell-based
Settings: 168 h, read-out: control

| Structure (SMILES) | inhibition of growth at 300 ppm [%] |
| --- | --- |
| CS(=O)(=NC(=O)c1ccc(C2=NOC(C(F)(F)F)N2)cc1)c1ccc(Cl)cc1 (centres unmarked) [Compound 1, N-((4-chlorophenyl)(methyl)(oxo)-λ^6-sulfaneylidene)-4-(5-(trifluoromethyl)-4,5-dihydro-1,2,4-oxadiazol-3-yl)benzamide] | > 70 |
| COc1ccc(S(C)(=O)=Nc2ccc(C3=NOC(C(F)(F)F)N3)cc2)cc1 (centres unmarked) [Compound 16, (4-methoxyphenyl)(methyl)((4-(5-(trifluoromethyl)-4,5-dihydro-1,2,4-oxadiazol-3-yl)phenyl)imino)-λ^6-sulfanone] | > 70 |
| CN(CCOc1ccccc1)C(=O)c1ccc(-c2noc(C(F)F)n2)cc1 [Compound 17, 4-(5-(difluoromethyl)-1,2,4-oxadiazol-3-yl)-N-methyl-N-(2-phenoxyethyl)benzamide] | > 70 |
| CS(=O)(=NCc1ccc(C2=NOC(C(F)F)N2)cc1)c1ccccc1 (centres unmarked) [Compound 27, ((4-(5-(difluoromethyl)-4,5-dihydro-1,2,4-oxadiazol-3-yl)benzyl)imino)(methyl)(phenyl)-λ^6-sulfanone] | > 70 |
| CS(=O)(=NCc1ccc(-c2nc(C(F)F)n[nH]2)cc1)c1ccccc1 (centres unmarked) [Compound 42, ((4-(3-(difluoromethyl)-1h-1,2,4-triazol-5-yl)benzyl)imino)(methyl)(phenyl)-λ^6-sulfanone] | > 70 |

Test system: Phakopsora pachyrhizi
Test: Phakopsora pachyrhizi test in soybean, preventive spray in greenhouse
Format: in vivo
Settings: preventive spray on soybean plants, inoculated one day after treatment, compared to the untreated check, read-out: control (efficacy from disease severity rating)

| Structure (SMILES) | pest or weed control at 500 ppm [%] |
| --- | --- |
| CS(=O)(=NC(=O)c1ccc(C2=NOC(C(F)(F)F)N2)cc1)c1ccc(Cl)cc1 (centres unmarked) [Compound 1, N-((4-chlorophenyl)(methyl)(oxo)-λ^6-sulfaneylidene)-4-(5-(trifluoromethyl)-4,5-dihydro-1,2,4-oxadiazol-3-yl)benzamide] | > 90 |
| CC(C)(C)C(=O)NCc1ccc(-c2n[nH]c(C(F)(F)F)n2)cc1 [Compound 3, N-(4-(5-(trifluoromethyl)-1h-1,2,4-triazol-3-yl)benzyl)pivalamide] | > 90 |
| CC(C(=O)Nc1ccc(C2=NOC(C(F)(F)F)N2)cc1)c1ccccc1 (centres unmarked) [Compound 20, 2-phenyl-N-(4-(5-(trifluoromethyl)-4,5-dihydro-1,2,4-oxadiazol-3-yl)phenyl)propanamide] | > 90 |
| CN(Cc1ccc(C2=NOC(C(F)(F)F)N2)cc1)C(=O)C1CC1 (centres unmarked) [Compound 21, N-methyl-N-(4-(5-(trifluoromethyl)-4,5-dihydro-1,2,4-oxadiazol-3-yl)benzyl)cyclopropanecarboxamide] | > 90 |
| CN(Cc1ccc(C2=NOC(C(F)(F)F)N2)cc1)C(=O)C1CCC1 (centres unmarked) [Compound 22, N-methyl-N-(4-(5-(trifluoromethyl)-4,5-dihydro-1,2,4-oxadiazol-3-yl)benzyl)cyclobutanecarboxamide] | > 90 |
| O=C(Cc1ccccc1)Nc1ccc(C2=NOC(C(F)(F)F)N2)cc1 (centres unmarked) [Compound 23, 2-phenyl-N-(4-(5-(trifluoromethyl)-4,5-dihydro-1,2,4-oxadiazol-3-yl)phenyl)acetamide] | > 90 |
| COc1ccc(S(C)(=O)=NC(=O)c2ccc(C3=NOC(C(F)(F)F)N3)cc2)cc1 (centres unmarked) [Compound 25, N-((4-methoxyphenyl)(methyl)(oxo)-λ^6-sulfaneylidene)-4-(5-(trifluoromethyl)-4,5-dihydro-1,2,4-oxadiazol-3-yl)benzamide] | > 90 |
| O=C(Nc1ccc(Cl)cc1F)c1ccc(C2=NOC(C(F)(F)F)N2)cc1 (centres unmarked) [Compound 29, N-(4-chloro-2-fluorophenyl)-4-(5-(trifluoromethyl)-4,5-dihydro-1,2,4-oxadiazol-3-yl)benzamide] | > 90 |
| Cn1nc(C(F)(F)F)nc1-c1ccc(S(=O)(=O)c2ccccc2)cc1 [Compound 34, 1-methyl-5-(4-(phenylsulfonyl)phenyl)-3-(trifluoromethyl)-1h-1,2,4-triazole] | > 90 |
| CS(=O)(=Nc1ccc(-c2n[nH]c(C(F)(F)F)n2)cc1)c1ccc(C(F)(F)F)cc1 (centres unmarked) [Compound 40, Methyl((4-(5-(trifluoromethyl)-1h-1,2,4-triazol-3-yl)phenyl)imino)(4-(trifluoromethyl)phenyl)-λ^6-sulfanone] | > 90 |
| COc1ccc(S(C)(=O)=Nc2ccc(-c3n[nH]c(C(F)(F)F)n3)cc2)cc1 (centres unmarked) [Compound 43, (4-methyoxyphenyl)(methyl)((4-(5-(trifluoromethyl)-1h-1,2,4-triazol-3-yl)phenyl)imino)-λ^6-sulfanone] | > 90 |
| O=C(Nc1ccc(F)cc1F)c1ccc(-c2nc(C(F)(F)F)n[nH]2)cc1 [Compound 44, N-(2,4-difluorophenyl)-4-(3-(trifluoromethyl)-1h-1,2,4-triazol-5-yl)benzamide] | > 90 |
| CS(=O)(=NCc1ccc(-c2n[nH]c(C(F)(F)F)n2)cc1)c1cccnc1 (centres unmarked) [Compound 47, Methyl(pyridin-3-yl)((4-(5-(trifluoromethyl)-1h-1,2,4-triazol-3-yl)benzyl)imino)-λ^6-sulfanone] | > 90 |
| O=C(O)c1ccc(-c2cc(C(F)(F)F)on2)cc1 [Compound 56, 4-(5-(trifluoromethyl)isoxazol-3-yl)benzoic acid] | > 90 |
| O=C(Nc1ccc(F)cc1F)c1ccc(-c2cc(C(F)(F)F)on2)cc1 [Compound 57, N-(2,4-difluorophenyl)-4-(5-(trifluoromethyl)isoxazol-3-yl)benzamide] | > 90 |
| CN(CCOc1ccccc1)C(=O)c1ccc(-c2cc(C(F)(F)F)on2)cc1 [Compound 65, N-methyl-N-(2-phenoxyethyl)-4-(5-(trifluoromethyl)isoxazol-3-yl)benzamide] | > 90 |
| CS(=O)(=NC(=O)c1ccc(-c2cc(C(F)(F)F)on2)cc1)c1ccccc1 (centres unmarked) [Compound 66, N-(methyl(oxo)(phenyl)-λ^6-sulfaneylidene)-4-(5-(trifluoromethyl)isoxazol-3-yl)benzamide] | > 90 |
| CS(=O)(=NC(=O)c1ccc(-c2coc(C(F)(F)F)n2)cc1)c1ccc(F)cc1 (centres unmarked) [Compound 69, N-((4-fluorophenyl)(methyl)(oxo)-λ^6-sulfaneylidene)-4-(2-(trifluoromethyl)oxazol-4-yl)benzamide] | > 90 |
| O=C(Nc1ccc(F)cc1F)c1ccc(-c2nc(C(F)(F)F)oc2Cl)cc1 [Compound 70, 4-(5-chloro-2-(trifluoromethyl)oxazol-4-yl)-N-(2,4-difluorophenyl)benzamide] | > 90 |
| CN(CCOc1ccccc1)C(=O)c1ccc(-c2nc(C(F)(F)F)oc2Cl)cc1 [Compound 71, 4-(5-chloro-2-(trifluoromethyl)oxazol-4-yl)-N-methyl-N-(2-phenoxyethyl)benzamide] | > 90 |
| CS(=O)(=NC(=O)c1ccc(-c2coc(C(F)(F)F)n2)cc1)c1ccc(Cl)cc1 (centres unmarked) [Compound 72, N-((4-chlorophenyl)(methyl)(oxo)-λ^6-sulfaneylidene)-4-(2-(trifluoromethyl)oxazol-4-yl)benzamide] | > 90 |
| CS(=O)(=NC(=O)c1ccc(-c2nc(C(F)(F)F)oc2Cl)cc1)c1ccccc1 (centres unmarked) [Compound 74, 4-(5-chloro-2-(trifluoromethyl)oxazol-4-yl)-N-(methyl(oxo)(phenyl)-λ^6-sulfaneylidene)benzamide] | > 90 |
| O=C(Nc1ccc(F)cc1F)c1ccc(-c2coc(C(F)(F)F)n2)cc1 [Compound 77, N-(2,4-difluorophenyl)-4-(2-(trifluoromethyl)oxazol-4-yl)benzamide] | > 90 |
| O=C(Nc1c(F)cccc1F)c1ccc(-c2coc(C(F)(F)F)n2)cc1 [Compound 80, N-(2,6-difluorophenyl)-4-(2-(trifluoromethyl)oxazol-4-yl)benzamide] | > 90 |
| CS(=O)(=NC(=O)c1ccc(-c2coc(C(F)(F)F)n2)cc1)c1ccccc1 (centres unmarked) [Compound 83, N-(methyl(oxo)(phenyl)-λ^6-sulfaneylidene)-4-(2-(trifluoromethyl)oxazol-4-yl)benzamide] | > 90 |

Test system: Alternaria solani
Test: Alternaria solani (early blight of tomato/potato) mycelial radial growth on Potato Dextrose Agar
Settings: 168 h, read-out: control
Method: Compounds were dissolved in 0.3% DMSO & then added to Potato Dextrose Agar medium just prior to dispensing it into Petri dishes. 5 ml medium with compound in the desired concentration was dispensed into 60 mm sterile petri-plates. After solidification each plate was seeded with 5 mm size mycelial disc taken form periphery of actively growing virulent culture plate. Plates were incubated in growth chambers at 25° C. temperature and 60% relative humidity for seven days and radial growth was measured.

| Structure (SMILES) | inhibition of growth at 300 ppm [%] |
| --- | --- |
| CN(CCOc1ccccc1)C(=O)c1ccc(-c2n[nH]c(C(F)(F)F)n2)cc1 [Compound 11, N-methyl-N-(2-phenoxyethyl)-4-(5-(trifluoromethyl)-1h-1,2,4-triazol-3-yl)benzamide] | > 70 |
| COc1ccc(S(C)(=O)=Nc2ccc(C3=NOC(C(F)(F)F)N3)cc2)cc1 (centres unmarked) [Compound 16, (4-methoxyphenyl)(methyl)((4-(5-(trifluoromethyl)-4,5-dihydro-1,2,4-oxadiazol-3-yl)phenyl)imino)-λ^6-sulfanone] | > 70 |
| COc1ccc(S(C)(=O)=NC(=O)c2ccc(C3=NOC(C(F)(F)F)N3)cc2)cc1 (centres unmarked) [Compound 25, N-((4-methoxyphenyl)(methyl)(oxo)-λ^6-sulfaneylidene)-4-(5-(trifluoromethyl)-4,5-dihydro-1,2,4-oxadiazol-3-yl)benzamide] | > 70 |
| CS(=O)(=Nc1ccc(C2=NOC(C(F)(F)F)N2)cc1)c1ccc(C(F)(F)F)cc1 (centres unmarked) [Compound 26, Methyl((4-(5-(trifluoromethyl)-4,5-dihydro-1,2,4-oxadiazol-3-yl)phenyl)imino)(4-(trifluoromethyl)phenyl)-λ^6-sulfanone] | > 70 |
| O=C(Cc1ccccc1)Nc1ccc(-c2noc(C(F)F)n2)cc1 [Compound 31, N-(4-(5-(difluoromethyl)-1,2,4-oxadiazol-3-yl)phenyl)-2-phenylacetamide] | > 70 |
| CN(Cc1ccc(-c2n[nH]c(C(F)(F)F)n2)cc1)C(=O)C1CC1 [Compound 37, N-methyl-N-(4-(5-(trifluoromethyl)-1h-1,2,4-triazol-3-yl)benzyl)cyclopropanecarboxamide] | > 70 |
| CN(Cc1ccc(-c2n[nH]c(C(F)(F)F)n2)cc1)C(=O)C1CCC1 [Compound 38, N-methyl-N-(4-(5-(trifluoromethyl)-1h-1,2,4-triazol-3-yl)benzyl)cyclobutanecarboxamide] | > 70 |
| O=C(O)c1ccc(-c2cc(C(F)(F)F)on2)cc1 [Compound 56, 4-(5-(trifluoromethyl)isoxazol-3-yl)benzoic acid] | > 70 |
| CS(=O)(=NC(=O)c1ccc(-c2cc(C(F)(F)F)on2)cc1)c1ccccn1 (centres unmarked) [Compound 62, N-(methyl(oxo)(pyridin-2-yl)-λ^6-sulfaneylidene)-4-(5-(trifluoromethyl)isoxazol-3-yl)benzamide] | > 70 |
| COc1ccc(S(C)(=O)=NC(=O)c2ccc(-c3coc(C(F)(F)F)n3)cc2)cc1 (centres unmarked) [Compound 78, N-((4-methoxyphenyl)(methyl)(oxo)-λ^6-sulfaneylidene)-4-(2-(trifluoromethyl)oxazol-4-yl)benzamide] | > 70 |
| O=C(Nc1ccccc1)c1ccc(-c2coc(C(F)(F)F)n2)cc1 [Compound 81, N-phenyl-4-(2-(trifluoromethyl)oxazol-4-yl)benzamide] | > 70 |
